Patent US20260315410A1, “COMBINATION FOR ENHANCING BONE GROWTH AND/OR BONE STRENGTH” (SOCIÉTÉ DES PRODUITS NESTLÉ S.A., priority 2023, published 2026)

Columns and labels:
[1] = system: pre-osteoblastic cell line MC3T3-E1 subclone 4; test: Osteoblast alkaline phosphatase (ALP) activity; assay type: cell-based; details: 7 days of differentiation, without ascorbic acid; MK-7 3 μM, VitD 1 nM, VitA 100 nM (FIG. 1A)
From the text: (§1) The pre-osteoblastic cell line MC3T3-E1 subclone 4 (CRL-2593) was purchased from ATCC (Manassas; Virginia, USA). Cells were maintained in growth medium (GM) composed of ascorbic acid-free aMEM (ThermoFisher Scientific), supplemented with 10% fetal calf serum (FCS, ThermoFisher Scientific) and 1% penicillin/streptomycin. All culture media were refreshed every 2-3 days. Cells were passaged with trypsin/EDTA solution at less than 80% confluence. To induce differentiation into osteoblasts, cells were seeded at 5×10^4 cells/cm^2 and grown to confluency in GM for 24 h. Then, the medium was switched to differentiation medium (DM) composed of GM supplemented with 10 mM β-glycerophosphate and treatment solutions of interest. Ascorbic acid 50 μg/ml was also added to the DM depending on the experiment.
MC3T3-E1 subclone 4 cells were differentiated for 7 days without ascorbic acid, except for the positive control, and with the following treatment solutions: a mix composed of 3μM of vit.K2 (menaquinone-7), 100 nM of vit.A (all-trans-retinoic acid) and 1 nM of vit.D (1a,25-Dihydroxyvitamin D3); a mix called “SCFA20” composed of 15 μM of sodium acetate, 4 μM of sodium propionate and 1 μM of sodium butyrate; a mix called “SCFA50” composed of 37.5 μM of sodium acetate, 10 μM of sodium propionate and 2.5 μM of sodium butyrate; a mix called “SCFA60” composed of 45 μM of sodium acetate, 12 μM of sodium propionate and 3 μM of sodium butyrate. The vitamin mix was also combined to the 3 different combinations of short-chain fatty acids (SCFA).
After 7 days of differentiation, cells were then collected for alkaline phosphatase (ALP) activity measurement as described previously with minor modifications. […] Enzymatic reaction was monitored at 405 nm after 4-Nitrophenyl phosphate disodium salt hexahydrate addition. Michaelis-Menten kinetics were evaluated at 30° C. for 30 min. […] The activity value was normalized by protein content measured via the Pierce BCA Protein Assay Kit (ThermoFisher Scientific) according to the manufacturer's instructions.

osteocalcin = test: Osteocalcin mRNA levels (qPCR) in pre-osteoblastic cell line MC3T3-E1 subclone 4; assay type: cell-based; details: 21 days of differentiation, without ascorbic acid; MK-7 3 μM, VitD 1 nM, VitA 100 nM (FIG. 1B)
From the text: as §1
MC3T3-E1 subclone 4 cells were differentiated for 21 days (in DM without ascorbic acid except for the positive control) or 28 days (in DM containing ascorbic acid). Cells were then collected for gene expression analysis. […] RNA concentrations were measured using the DropSense96 (TRINEAN, Gentbrugge, Belgium).
CDNAs were synthetized using High-Capacity cDNA Reverse Transcription Kit (AppliedBiosystems; Waltham, Massachusetts, USA) according to the manufacturer's instructions. […] The relative gene expression was evaluated via the 2^-ΔCt method.

Structure (SMILES)	ALP activity (marker of osteoblast differentiation) [1]	Osteocalcin mRNA levels (osteocalcin)
C=C1/C(=C\C=C2/CCC[C@]3(C)[C@@H]([C@H](C)CCCC(C)(C)O)CC[C@@H]23)C[C@@H](O)C[C@@H]1O [vitamin D, 1α,25-Dihydroxyvitamin D3]	significant effect	no significant effect
CC1=C(/C=C/C(C)=C/C=C/C(C)=C/C(=O)O)C(C)(C)CCC1 [vitamin A, all-trans-retinoic acid]	significant effect	no significant effect
CC(C)=CCC/C(C)=C/CC/C(C)=C/CC/C(C)=C/CC/C(C)=C/CC/C(C)=C/CC/C(C)=C/CC1=C(C)C(=O)c2ccccc2C1=O [vitamin K2, menaquinone-7]	no significant effect	–
